According to patent US9045482B2, “Pyrido[4,3-B]indoles and methods of use” (Medivation Technologies, Inc., priority 2009, dated 2015):

Experiments:
[1] = target: human recombinant histamine H1 receptor (Homo sapiens, UniProt P35367); assay: Histamine H1 radioligand binding ([3H]Pyrilamine); conditions: 1 μM; for inhibition at 1 µM: read-out: Binding data (Percentage Inhibition) Histamine Binding H1
Procedure: To evaluate in radioligand binding assays the activity of compounds of the invention, human recombinant histamine H1 receptor expressed in Chinese hamster ovary (CHO) cells [De Backer, M. et al., Biochem. Biophys. Res. Comm. (1993), 197(3):1601] in a modified Tris-HCl buffer (50 mM Tris-HCl, pH 7.4, 2 mM MgCl2, 100 mM NaCl, 250 mM Sucrose) was used. Compounds of the invention were incubated with 1.2 nM [^3H]Pyrilamine for 180 min at 25° C. Non-specific binding was estimated in the presence of 1 μM pyrilamine. Receptor proteins were filtered and washed, the filters were then counted to determine [^3H]Pyrilamine specifically bound. Compounds were screened at 1 μM or lower, using 1% DMSO as vehicle. Biochemical assay results are presented as the percent inhibition of specific binding in Table 2.

[2] = target: T1, human recombinant histamine H2 receptor (Homo sapiens, UniProt P25021); assay: Histamine H2 radioligand binding (Aminopotentidine); conditions: read-out: Binding data (Percentage Inhibition) Histamine Binding H2
T1 construct: expressed in transfected cells; host or cells: Chinese hamster ovary (CHO) K1 cells
Procedure: To evaluate in radioligand binding assays the activity of compounds of the invention, human recombinant histamine H2 receptor expressed in Chinese hamster ovary (CHO) K1 cells [Ruat, M., Proc. Natl. Acad. Sci. USA. (1990), 87(5):1658] in a 50 mM Phosphate buffer, pH 7.4 was used. Compounds of the invention were incubated with 0.1 nM […] for 120 min at 25° C. Non-specific binding was estimated in the presence of 3 μM Tiotidine. Receptor proteins were filtered and washed, the filters were then counted to determine […] specifically bound. Compounds were screened at 1 μM or lower, using 1% DMSO as vehicle. Biochemical assay results are presented as the percent inhibition of specific binding in Table 2.

[3] = target: human recombinant dopamine D2L receptor (Homo sapiens, UniProt P14416); assay: Dopamine D2L radioligand binding ([3H]Spiperone)
Procedure: To evaluate in radioligand binding assays the activity of compounds of the invention, human recombinant dopamine D2L receptor expressed in Chinese hamster ovary (CHO) cells [Grandy, D. K. et al., Proc. Natl. Acad. Sci. USA. (1989), 86:9762; Hayes, G. et al., Mol. Endocrinol. […] Compounds of the invention were incubated with 0.16 nM [^3H]Spiperone for 120 min at 25° C. Non-specific binding was estimated in the presence of 10 μM Haloperidol. Receptor proteins were filtered and washed, the filters were then counted to determine [^3H]Spiperone specifically bound. Compounds were screened at 1 μM or lower, using 1% DMSO as vehicle. Biochemical assay results are presented as the percent inhibition of specific binding in Table 3.

[4] = target: T2, human recombinant serotonin (5-Hydroxytryptamine) 5-HT2A receptor (Homo sapiens, UniProt P28223); assay: Serotonin 5-HT2A radioligand binding ([3H]Ketanserin)
T2 construct: expressed in transfected cells; host or cells: Chinese hamster ovary (CHO-K1) cells
Procedure: (§1) (1997), 68:1998] in a 50 mM Tris-HCl buffer, pH 7.4, was used. Compounds of the invention were incubated with 0.5 nM [^3H]Ketanserin for 60 min at 25° C. Non-specific binding was estimated in the presence of 1 μM Mianserin. Receptor proteins were filtered and washed, the filters were then counted to determine [^3H]Ketanserin specifically bound. Compounds were screened at 1 μM or lower, using 1% DMSO as vehicle. Biochemical assay results are presented as the percent inhibition of specific binding in Table 4.

[5] = target: T3, human recombinant serotonin (5-Hydroxytryptamine) 5-HT2C receptor (Homo sapiens, UniProt P28335); assay: Serotonin 5-HT2C radioligand binding ([3H]Mesulergine)
T3 construct: expressed in transfected cells; host or cells: Chinese hamster ovary (CHO-K1) cells
T3 sequence (P28335 33-458): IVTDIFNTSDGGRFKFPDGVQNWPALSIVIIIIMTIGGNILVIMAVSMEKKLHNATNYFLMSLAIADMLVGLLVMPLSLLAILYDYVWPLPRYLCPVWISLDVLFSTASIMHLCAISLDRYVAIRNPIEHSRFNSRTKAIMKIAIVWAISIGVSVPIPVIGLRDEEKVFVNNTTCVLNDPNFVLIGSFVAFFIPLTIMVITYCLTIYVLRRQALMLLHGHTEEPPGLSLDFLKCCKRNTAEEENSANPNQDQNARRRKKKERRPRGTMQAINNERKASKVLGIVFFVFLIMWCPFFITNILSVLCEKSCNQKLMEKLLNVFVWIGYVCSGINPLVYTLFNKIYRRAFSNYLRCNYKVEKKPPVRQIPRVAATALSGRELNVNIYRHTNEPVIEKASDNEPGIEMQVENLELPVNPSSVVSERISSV
Procedure: as §1, with “69:1449]” for “68:1998]”, “modified Tris-HCl buffer (50” for “50”, “Tris-HCl,” for “Tris-HCl buffer,”, “7.4, 0.1% Ascorbic Acid, 10 μM Pargyline)” for “7.4,”, “1” for “0.5”, “[^3H]Mesulergine” for “[^3H]Ketanserin”

[6] = target: T4, human recombinant serotonin (5-Hydroxytryptamine) 5-HT6 receptor (Homo sapiens, UniProt P50406); assay: Serotonin 5-HT6 radioligand binding ([3H]LSD)
T4 construct: expressed in transfected cells; host or cells: human HeLa cells
Procedure: (§2) Compounds of the invention were incubated with 1.5 nM [3H]Lysergic acid diethylamide (LSD) for 120 min at 37° C. […] Receptor proteins were filtered and washed, the filters were then counted to determine [3H]LSD specifically bound. Compounds were screened at 1 μM or lower, using 1% DMSO as vehicle. Biochemical assay results are presented as the percent inhibition of specific binding in Table 4.

[7] = target: human recombinant serotonin (5-Hydroxytryptamine) 5-HT7 receptor (Homo sapiens, UniProt P34969); assay: Serotonin 5-HT7 radioligand binding ([3H]LSD)
Procedure: as §2, with “of” for “of the”, “5.5” for “1.5”, “[^3H]Lysergic” for “[3H]Lysergic”, “2 h” for “120 min”, “25°” for “37°”, “[^3H]LSD” for “[3H]LSD”

T1 sequence (P25021 whole entry): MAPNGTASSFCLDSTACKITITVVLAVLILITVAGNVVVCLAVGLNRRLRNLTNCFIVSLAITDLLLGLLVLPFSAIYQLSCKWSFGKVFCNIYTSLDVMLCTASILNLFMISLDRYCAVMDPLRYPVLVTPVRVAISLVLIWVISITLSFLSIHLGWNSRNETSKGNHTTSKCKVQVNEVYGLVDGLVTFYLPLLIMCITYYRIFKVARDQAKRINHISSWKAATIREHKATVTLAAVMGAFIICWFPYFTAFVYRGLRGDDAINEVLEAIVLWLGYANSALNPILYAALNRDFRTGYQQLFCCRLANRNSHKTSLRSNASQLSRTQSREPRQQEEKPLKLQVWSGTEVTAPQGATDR
human recombinant histamine H1 receptor, sequence (P35367 whole entry): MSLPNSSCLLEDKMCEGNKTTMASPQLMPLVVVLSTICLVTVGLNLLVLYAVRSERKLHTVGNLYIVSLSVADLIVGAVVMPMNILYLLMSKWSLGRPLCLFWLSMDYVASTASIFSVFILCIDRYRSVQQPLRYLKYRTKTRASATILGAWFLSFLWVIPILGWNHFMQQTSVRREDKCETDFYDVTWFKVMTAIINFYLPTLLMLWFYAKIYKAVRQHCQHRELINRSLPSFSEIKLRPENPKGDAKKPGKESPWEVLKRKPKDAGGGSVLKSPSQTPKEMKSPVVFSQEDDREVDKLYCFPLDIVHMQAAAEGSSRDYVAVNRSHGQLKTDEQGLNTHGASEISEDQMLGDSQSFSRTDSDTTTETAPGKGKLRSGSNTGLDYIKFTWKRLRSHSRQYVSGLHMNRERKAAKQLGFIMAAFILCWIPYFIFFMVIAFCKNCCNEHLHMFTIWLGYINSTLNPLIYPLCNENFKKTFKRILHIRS
T2 sequence (P28223 whole entry): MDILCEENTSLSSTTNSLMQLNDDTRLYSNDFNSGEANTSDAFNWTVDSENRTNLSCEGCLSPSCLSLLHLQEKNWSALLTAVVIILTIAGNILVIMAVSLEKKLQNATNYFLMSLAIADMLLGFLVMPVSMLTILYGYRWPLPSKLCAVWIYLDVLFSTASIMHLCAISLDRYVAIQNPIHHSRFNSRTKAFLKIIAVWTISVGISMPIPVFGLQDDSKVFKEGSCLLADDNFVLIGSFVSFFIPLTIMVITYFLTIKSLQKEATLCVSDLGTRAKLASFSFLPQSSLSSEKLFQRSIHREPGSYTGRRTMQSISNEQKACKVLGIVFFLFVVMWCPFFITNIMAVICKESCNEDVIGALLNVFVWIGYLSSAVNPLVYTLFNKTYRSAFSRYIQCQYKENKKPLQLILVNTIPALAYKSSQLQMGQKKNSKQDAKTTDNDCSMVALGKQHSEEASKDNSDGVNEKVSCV
human recombinant serotonin (5-Hydroxytryptamine) 5-HT7 receptor, sequence (P34969 whole entry): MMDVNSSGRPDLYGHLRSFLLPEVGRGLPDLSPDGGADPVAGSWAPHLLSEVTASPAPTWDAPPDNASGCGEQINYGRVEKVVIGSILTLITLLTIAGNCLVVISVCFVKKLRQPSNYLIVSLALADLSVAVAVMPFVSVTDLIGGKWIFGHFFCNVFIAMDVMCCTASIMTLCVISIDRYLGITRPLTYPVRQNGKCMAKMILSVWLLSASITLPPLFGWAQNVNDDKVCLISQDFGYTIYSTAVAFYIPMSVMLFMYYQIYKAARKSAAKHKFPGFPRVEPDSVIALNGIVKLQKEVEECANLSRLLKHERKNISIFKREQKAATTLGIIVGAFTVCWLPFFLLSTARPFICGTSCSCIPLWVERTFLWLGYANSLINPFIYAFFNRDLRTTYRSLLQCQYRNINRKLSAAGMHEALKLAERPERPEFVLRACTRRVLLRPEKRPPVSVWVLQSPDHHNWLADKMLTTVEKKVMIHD
human recombinant dopamine D2L receptor, sequence (P14416 whole entry): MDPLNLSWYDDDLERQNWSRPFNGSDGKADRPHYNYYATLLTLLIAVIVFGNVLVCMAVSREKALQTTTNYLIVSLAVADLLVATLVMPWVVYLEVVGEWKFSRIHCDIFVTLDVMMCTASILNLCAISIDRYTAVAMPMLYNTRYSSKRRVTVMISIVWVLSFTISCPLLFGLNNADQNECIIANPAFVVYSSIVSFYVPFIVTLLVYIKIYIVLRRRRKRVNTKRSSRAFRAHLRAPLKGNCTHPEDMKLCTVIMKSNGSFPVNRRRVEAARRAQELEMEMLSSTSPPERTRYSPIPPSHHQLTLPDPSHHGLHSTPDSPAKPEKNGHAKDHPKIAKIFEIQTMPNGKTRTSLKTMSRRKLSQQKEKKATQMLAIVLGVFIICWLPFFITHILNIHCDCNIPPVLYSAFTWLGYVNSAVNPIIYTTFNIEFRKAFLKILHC
T4 sequence (P50406 whole entry): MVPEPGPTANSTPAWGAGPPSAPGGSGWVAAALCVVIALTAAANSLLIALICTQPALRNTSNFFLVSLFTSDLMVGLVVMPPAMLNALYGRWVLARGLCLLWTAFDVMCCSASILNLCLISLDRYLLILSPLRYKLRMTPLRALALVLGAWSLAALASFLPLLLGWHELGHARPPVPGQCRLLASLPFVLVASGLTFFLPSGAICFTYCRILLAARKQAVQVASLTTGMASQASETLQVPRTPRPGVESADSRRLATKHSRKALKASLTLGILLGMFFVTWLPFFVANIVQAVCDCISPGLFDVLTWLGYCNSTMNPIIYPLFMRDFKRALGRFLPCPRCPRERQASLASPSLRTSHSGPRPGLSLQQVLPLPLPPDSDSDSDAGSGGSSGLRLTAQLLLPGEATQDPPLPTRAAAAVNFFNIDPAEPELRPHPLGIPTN

SMILES: CC(=Cn1c2c(c3cc(C)ccc31)C1CCCN1CC2)c1ccc(F)cc1 (stereo in doubt) [Compound 4, (E)-7-(2-(4-fluorophenyl)prop-1-enyl)-10-methyl-2,3,5,6,7,11c-hexahydro-1H-indolizino[7,8-b]indole]
- Binding data (Percentage Inhibition) Histamine Binding H1 [1]: 53%
- inhibition at 1 µM [1]: 41%
- inhibition at 1 µM [2]: 75%
- Percent Inhibition of ligand binding Dopamine D2L ([3]; 0.1 μM ligand conc.): 59%
- Percent Inhibition of ligand binding Dopamine D2L ([3]; 1 μM ligand conc.): 90%
- Percent Inhibition of ligand binding Serotonin 5-HT2A ([4]; 0.1 μM ligand concentration): 87%
- Percent Inhibition of ligand binding Serotonin 5-HT2A ([4]; 1 μM ligand concentration): 99%
- Percent Inhibition of ligand binding Serotonin 5-HT2C ([5]; 0.1 μM ligand concentration): 88%
- Percent Inhibition of ligand binding Serotonin 5-HT2C ([5]; 1 μM ligand concentration): 99%
- Percent Inhibition of ligand binding Serotonin 5-HT6 ([6]; 0.1 μM ligand concentration): 100%
- Percent Inhibition of ligand binding Serotonin 5-HT6 ([6]; 1 μM ligand concentration): 103%
- Percent Inhibition of ligand binding Serotonin 5-HT7 ([7]; 1 μM ligand concentration): 101%

SMILES: FC(F)(F)c1ccc(CCn2c3c(c4cccnc42)CN2CCCC2C3)cn1 (stereo not drawn) [Compound 39, 11-(2-(6-(trifluoromethyl)pyridin-3-yl)ethyl)-7,8,9,9a,10,11-hexahydro-5H-pyrido[3′,2′:4,5]pyrrolo[3,2-f]indolizine]
- Percent Inhibition of ligand binding Serotonin 5-HT2A ([4]; 0.1 μM ligand concentration): 24%
- Percent Inhibition of ligand binding Serotonin 5-HT6 ([6]; 0.1 μM ligand concentration): −5%
- Percent Inhibition of ligand binding Serotonin 5-HT7 ([7]; 0.1 μM ligand concentration): 2%

SMILES: Cc1cnc2c(c1)c1c(n2CCc2ccc(C(F)(F)F)nc2)CC2CCCN2C1 (stereo not drawn) [Compound 44, 3-methyl-11-(2-(6-(trifluoromethyl)pyridin-3-yl)ethyl)-7,8,9,9a,10,11-hexahydro-5H-pyrido[3′,2′:4,5]pyrrolo[3,2-f]indolizine]
- Percent Inhibition of ligand binding Serotonin 5-HT2A ([4]; 0.1 μM ligand concentration): 65%
- Percent Inhibition of ligand binding Serotonin 5-HT6 ([6]; 0.1 μM ligand concentration): 9%
- Percent Inhibition of ligand binding Serotonin 5-HT7 ([7]; 0.1 μM ligand concentration): 24%

SMILES: CC(=Cn1c2c(c3cc(C)ccc31)C1CCCCN1CC2)c1ccc(F)cc1 (stereo in doubt) [Compound 6, (E)-8-(2-(4-fluorophenyl)prop-1-enyl)-11-methyl-1,2,3,4,6,7,8,12c-octahydroindolo[3,2-a]quinolizine]
- inhibition at 1 µM [1]: 28%
- inhibition at 1 µM [2]: 67%
- Percent Inhibition of ligand binding Dopamine D2L ([3]; 1 μM ligand conc.): 94%
- Percent Inhibition of ligand binding Serotonin 5-HT2A ([4]; 1 μM ligand concentration): 99%
- Percent Inhibition of ligand binding Serotonin 5-HT2C ([5]; 1 μM ligand concentration): 94%
- Percent Inhibition of ligand binding Serotonin 5-HT6 ([6]; 1 μM ligand concentration): 105%
- Percent Inhibition of ligand binding Serotonin 5-HT7 ([7]; 1 μM ligand concentration): 92%

SMILES: FC(F)(F)c1ccc(CCn2c3c(c4cccnc42)C2CCCN2CC3)cn1 (stereo not drawn) [Compound 40, 7-(2-(6-(trifluoromethyl)pyridin-3-yl)ethyl)-2,3,5,6,7,11c-hexahydro-1H-pyrido[3′,2′:4,5]pyrrolo[2,3-g]indolizine]
- Percent Inhibition of ligand binding Serotonin 5-HT2A ([4]; 0.1 μM ligand concentration): 6%
- Percent Inhibition of ligand binding Serotonin 5-HT6 ([6]; 0.1 μM ligand concentration): 1%
- Percent Inhibition of ligand binding Serotonin 5-HT7 ([7]; 0.1 μM ligand concentration): 10%

SMILES: Cc1cnc2c(c1)c1c(n2CCc2ccc(C(F)(F)F)nc2)CCN2CCCC12 (stereo not drawn) [Compound 43, 10-methyl-7-(2-(6-(trifluoromethyl)pyridin-3-yl)ethyl)-2,3,5,6,7,11c-hexahydro-1H-pyrido[3′,2′:4,5]pyrrolo[2,3-g]indolizine]
- Percent Inhibition of ligand binding Serotonin 5-HT2A ([4]; 0.1 μM ligand concentration): 7%
- Percent Inhibition of ligand binding Serotonin 5-HT6 ([6]; 0.1 μM ligand concentration): 5%
- Percent Inhibition of ligand binding Serotonin 5-HT7 ([7]; 0.1 μM ligand concentration): 22%

SMILES: CC(=Cn1c2c(c3cc(C)ccc31)CN1CCCC1C2)c1ccc(F)cc1 (stereo in doubt) [Compound 3, (E)-10-(2-(4-fluorophenyl)prop-1-enyl)-7-methyl-2,3,5,10,11,11a-hexahydro-1H-indolizino [7,6-b]indole]
- inhibition at 1 µM [1]: 88%
- inhibition at 1 µM [2]: 97%
- Percent Inhibition of ligand binding Dopamine D2L ([3]; 1 μM ligand conc.): 11%
- Percent Inhibition of ligand binding Serotonin 5-HT2A ([4]; 1 μM ligand concentration): 90%
- Percent Inhibition of ligand binding Serotonin 5-HT2C ([5]; 1 μM ligand concentration): 99%
- Percent Inhibition of ligand binding Serotonin 5-HT6 ([6]; 1 μM ligand concentration): 101%
- Percent Inhibition of ligand binding Serotonin 5-HT7 ([7]; 1 μM ligand concentration): 94%

SMILES: CC(=Cn1c2c(c3cc(C)ccc31)CN1CCCCC1C2)c1ccc(F)cc1 (stereo in doubt) [Compound 5, (E)-5-(2-(4-fluorophenyl)prop-1-enyl)-2-methyl-5,6,6a,7,8,9,10,12-octahydroindolo[2,3-b]quinolizine]
- inhibition at 1 µM [1]: 76%
- inhibition at 1 µM [2]: 97%
- Percent Inhibition of ligand binding Dopamine D2L ([3]; 1 μM ligand conc.): 28%
- Percent Inhibition of ligand binding Serotonin 5-HT2A ([4]; 1 μM ligand concentration): 98%
- Percent Inhibition of ligand binding Serotonin 5-HT2C ([5]; 1 μM ligand concentration): 92%
- Percent Inhibition of ligand binding Serotonin 5-HT6 ([6]; 1 μM ligand concentration): 96%
- Percent Inhibition of ligand binding Serotonin 5-HT7 ([7]; 1 μM ligand concentration): 97%
